Experimental data from patent publication US12256764B2 (priority 2017, dated 2025).

System: rats
Assay: Acute oral toxicity (LD50) in rats
Conditions: conversion of the MSDS LD50

OCC(O)CO [Vegetable glycerin, glycerol]
LD50 oral rat dosage expressed for a 180 pound male: 36 ounces
